Several values for one entry are separate records, joined by “and”; a condition that tells them apart may be missing. Identical values can stand only once. Entries after “also recorded” stand apart in the source; their conditions may differ. Like-named read-outs stand apart in the source and are kept apart here.
How the values were obtained:
[1] = system: chymotrypsin-like (CT-L) proteasome activity; assay: Proteasome inhibition in packed whole blood: CT-L; type: in vivo, human
Excerpt: (§1) The drugs were infused on 28-Day Cycles.
(§2) Change in proteasome activities in packed whole blood (PWB) lysates and peripheral blood mononuclear cell (PBMC) lysates, comparing pre-drug and post drug levels on Days 1, 8, and 15 of Cycle 1; Days 1 and 15 of each Cycle thereafter; and at the End-of Treatment Visit.
(§3) The laboratory correlates include assessment of the percentage inhibition of proteasome function (evaluated by measurement of CT-L, T-L and C-L activity in blood isolates such as whole blood and PBMC lysates.
(§4) PD analysis will include change in proteasome activities (whole blood lysates and PBMC lysates) by comparing pre-drug and post drug levels on Days 1, 8, and 15 (i.e., for each dose) of Cycle 1 and Days 1 and 15 (i.e., for the first and last doses) of each cycle thereafter.

[2] = system: 20S Proteasome; assay: 20S proteasome activity (% inhibition) in rodent brain; type: in vivo, mouse
[3] = target: T1, caspase-like (C-L) proteasome activity (Homo sapiens, UniProt P28072); assay: Proteasome inhibition in packed whole blood: C-L; type: in vivo; conditions: PWB post-Marizomib infusion (peak effect)
T1 construct: Change in proteasome activities in packed whole blood (PWB) lysates and peripheral blood mononuclear cell (PBMC) lysates; from tissue; host or cells: packed whole blood lysates of dosed glioma patients
Excerpt: as §1, §2, §3, §4

[4] = Compassionate use of marizomib in CNS-myeloma patients: safety; type: in vivo, human
Procedure: This example sets forth seven case studies in which CNS-MM (i.e., multiple myeloma with CNS involvement) was treated using marizomib alone or in combination with other agents.
As set forth herein, 7 patients were treated under single patient compassionate use protocols with MRZ for CNS-myeloma. Marizomib was well-tolerated. […] One patient has been on the study for 13 months with complete resolution of both […].

[5] = system: human glioblastoma (GBM) cell lines; assay: Migration and matrix invasion of GBM cell lines; type: cell-based; conditions: either of two GBM lines
Excerpt: In vitro studies of multiple glioma cell lines were highly sensitive to MRZ. […] Treatment with MRZ decreased matrix invasion by either of two GBM lines by approximately 90%, a highly significant effect.

[6] = BEV serum pharmacokinetics (Phase 1 MRZ + BEV); type: in vivo, human; conditions: for BEV pharmacokinetic parameters: effect of co-administration: with MRZ
Procedure: The drugs were infused on 28-Day Cycles. Tumor response is assessed every other cycle by RANO criteria.

[7] = tumor-bearing mouse, IV, individual mice 1 and 2
[8] = tumor-bearing mouse, IV, individual mice 1 and 2, NE = No Effect, listed as MRZ
[9] = tumor-bearing mouse, IV, individual mice 1 and 2, listed as MRZ
[10] = MRZ 0.7 mg/m^2, C1D8 (17 May 2016)
[11] = MRZ 0.8 mg/m^2, C1D8 (17 May 2016)
[12] = MRZ 0.8 mg/m^2, C1D8 (Table 43)
[13] = BEV 10 mg/kg IV, serum, C1D15, marizomib 0.7 mg/m^2 cohort
[14] = BEV 10 mg/kg IV, serum, C1D15, marizomib 0.8 mg/m^2 cohort
[15] = BEV 10 mg/kg IV, serum, C1D15, marizomib […]^2 cohort
[16] = BEV PK, C1D15, MRZ 0.7 mg/m^2 cohort (17 May 2016)
[17] = BEV PK, C1D15, MRZ 0.7 mg/m^2 cohort (Table 43)
[18] = BEV PK, C1D15, MRZ 0.8 mg/m^2 cohort (17 May 2016)
[19] = BEV PK, C1D15, MRZ 0.8 mg/m^2 cohort (Table 43)
[20] = across all dose cohorts, BEV 10 mg/kg with MRZ

## C[C@@]12OC(=O)[C@]1([C@@H](O)[C@@H]1C=CCCC1)NC(=O)[C@@H]2CCCl [marizomib]
[1]; PWB post-MRZ infusion (peak effect), 0.7 mg/m^2 (17 May 2016)
  % CT-L inhibition: 100 ± 0 (3) %
[1]; PWB post-Marizomib infusion (peak effect), 0.7 mg/m^2
  % CT-L inhibition: 100 ± 0 (3) %
[1]; PWB post-Marizomib infusion (peak effect), 0.8 mg/m^2
  % CT-L inhibition: 100 ± 0 (3) %
[1]; packed whole blood, up to two weeks after marizomib dosing
  sustained inhibition of the CT-L domain, pre-infusion: 60-80%
[2]; mouse
  proteasome activity in brain: inhibits proteasome activity
[2]; tumor-bearing mouse
  CT-L activity in brain: inhibits CT-L activity in brain
[2]; [7]
  20S Proteasome Activity (% Inhibition), Blood, Peak (2 hr): 99%
  20S Proteasome Activity (% Inhibition), Blood, Trough: 87%
[2]; [8]
  20S Proteasome Activity (% Inhibition), Brain, Peak (2 hr): 94% and 98%
  20S Proteasome Activity (% Inhibition), Brain, Trough: 52% and 41%
[2]; [9]
  20S Proteasome Activity (% Inhibition), Tumor, Peak (2 hr): 56% and 77%
  20S Proteasome Activity (% Inhibition), Tumor, Trough: 15% and 0%
[3]; 0.55 mg/m^2
  inhibition at […]2: 21 ± 7.8%
[3]; 0.7 mg/m^2
  inhibition at 0.7 mg/m2: 50.4 ± 9.1%
[3]; 0.8 mg/m^2
  inhibition at 0.8 mg/m2: 51.9 ± 8.3%
IV infusion
  CL: high
  T½: short
  Vd: large
[10]
  CLobs: 162 (1) mL/min/m^2
  Cmax: 65 ± 31 (3) ng/mL
  Vss obs: 7377 (1) mL/m^2
MRZ 0.7 mg/m^2, C1D8 (Table 43)
  CLobs: 272 ± 166 (3) L/hr
[11]
  CLobs: 3822 ± 1798 (2) mL/min/m^2
  Vss obs: 12379 ± 8698 (2) mL/m^2
[12]
  CLobs: 304 ± 85.0 (3) L/hr
  Vd: 55.0 ± 19.7 (3) L
MRZ […]^2, C1D8 (17 May 2016)
  Vss obs: 12971 ± 7600 (3) mL/m^2
Marizomib 0.7 mg/m^2 IV, C1D8, blood
  CLobs: 272 ± 166 (3) L/hr
Marizomib 0.8 mg/m^2 IV, C1D8, blood
  CLobs: 304 ± 85.0 (3) L/hr
With BEV
  MRZ pharmacokinetic parameters: effect of co-administration: not affected by co-administration
[4]; 7 CNS-MM patients
  CNS adverse events: no CNS adverse events
  tolerability: well-tolerated
[4]; 7 CNS-MM patients, listed as Marizomib
  CNS adverse events: No CNS-adverse events
[4]; Case 1
  Safety: No adverse events were reported
[4]; Case 1, listed as MRZ
  Safety: MRZ was well tolerated
[4]; Case 2
  Safety: No adverse events or serious adverse events were observed
[4]; Case 2, listed as MRZ
  Safety: No concerning AEs
[4]; Case 3
  Safety: grade 1 adverse event
[4]; Case 3, listed as MRZ
  Safety: Grade 1 shortness of
[4]; Case 4
  Safety: well-tolerated with no adverse events reported
[4]; Case 4, listed as MRZ
  Safety: Tolerated treatment
[4]; Case 5
  Safety: serious adverse event
[4]; Case 5, listed as MRZ
  Safety: AE due to PD,
[4]; Case 6
  Safety: grade 2 adverse event
[4]; Case 6, listed as MRZ
  Safety: Overall, no safety
[4]; Case 7, listed as MRZ
  Safety: No adverse events or safety concerns were noted; also recorded: No AEs or safety
[5]
  decrease of matrix invasion: approximately 90%

## bevacizumab [reference compound]
[6]; BEV 10 mg/kg IV, serum, C1D1, marizomib 0.7 mg/m^2 cohort
  Cmax D1: 193 ± 8 (2) μg/mL
[6]; BEV 10 mg/kg IV, serum, C1D1, marizomib 0.8 mg/m^2 cohort
  Cmax D1: 267 ± 13.3 (3) μg/mL
[6]; BEV 10 mg/kg IV, serum, C1D1, marizomib […]^2 cohort
  Cmax D1: 275 ± 37.5 (6) μg/mL
[6]; [13]
  Cmax D15: 402 ± 123 (3) μg/mL
  Cmin D15: 81.1 ± 17.4 (2) μg/mL
[6]; [14]
  Cmax D15: 380 ± 56.5 (2) μg/mL
  Cmin D15: 85.0 ± 9.87 (3) μg/mL
[6]; [15]
  Cmax D15: 351 ± 46.6 (5) μg/mL
  Cmin D15: 89.7 ± 6.2 (6) μg/mL
[6]; BEV PK, C1D1, MRZ 0.7 mg/m^2 cohort (17 May 2016)
  Cmax D1: 282 ± 89 (3) μg/mL
[6]; BEV PK, C1D1, MRZ 0.7 mg/m^2 cohort (Table 43)
  Cmax D1: 193 ± 8 (2) μg/mL
[6]; BEV PK, C1D1, MRZ 0.8 mg/m^2 cohort (17 May 2016)
  Cmax D1: 267 ± 133 (3) μg/mL
[6]; BEV PK, C1D1, MRZ 0.8 mg/m^2 cohort (Table 43)
  Cmax D1: 267 ± 13.3 (3) μg/mL
[6]; [16]
  Cmax D15: 402 ± 123 (3) μg/mL
  Cmin D15: 114 ± 34 (3) μg/mL
[6]; [17]
  Cmax D15: 402 ± 123 (3) μg/mL
  Cmin D15: 81.1 ± 17.4 (2) μg/mL
[6]; [18]
  Cmax D15: 404 ± 40 (3) μg/mL
  Cmin D15: 85 ± 9.9 (3) μg/mL
[6]; [19]
  Cmax D15: 380 ± 56.5 (2) μg/mL
  Cmin D15: 85.0 ± 9.87 (3) μg/mL
[6]; Study 108, BEV 10 mg/kg with MRZ
  Mean Day 15 Cmax of BEV: 379 µg/mL
[6]; [20]
  mean Cmax of bevacizumab on Day 1: 275 µg/mL
  mean Cmax of bevacizumab on Day 1 (second value so printed): 379 µg/mL
  mean Cmin of bevacizumab on Day 15: 95 µg/mL
[6]
  BEV pharmacokinetic parameters: effect of co-administration: not affected by co-administration
[6]; listed as BEV
  BEV pharmacokinetic parameters: effect of co-administration: no effect of MRZ on BEV pharmacokinetics; also recorded: not affected by co-administration of MRZ
